Patent publication US10328141B2, “Synthetic vaccines against Streptococcus pneumoniae type 1” (MAX-PLANCK-GESELLSCHAFT ZUR FÖRDERUNG DER WISSENSCHAFTEN …, priority 2013, dated 2019)

Key:
[1] = system: human pneumococcal serum 007sp; assay: Glycan microarray binding of human pneumococcal reference serum 007sp to immobilised saccharides; settings: saccharides coated on modified CodeLink NHS slides; pooled sera of 287 humans immunized with Pneumovax; FIG. 5
Description: (§1) Microarray slides coated with the saccharides of general formula (I) were synthesized by conjugating the saccharides of general formula (I) to said modified microarray slides, and incubated with rabbit anti-Streptococcus pneumoniae type 1 typing serum […] in the presence or absence of native Streptococcus pneumoniae type 1 polysaccharide.
[…] Slides were washed three times with water and three times with ethanol, centrifuged to dryness, and stored under argon until spotting. Diluted saccharides of general formula (I) were printed onto the modified microarray slides at 0.4 nL per spot by an automatic piezoelectric arraying robot (Scienion, Berlin, Germany). For completion of the immobilization reaction, printed slides were stored for 24 h in a humidified chamber.
Microarray slides were washed three times with water. Unreacted maleimide was quenched by submerging the slides in β-mercaptoethanol (0.1%, v/v) in PBS for 1 h at room temperature. Slides were washed three times with water and with ethanol, centrifuged to dryness, and blocked with BSA (1%, w/v) in PBS for 1 h at room temperature. Blocked slides were washed (2×PBS, 3×water), centrifuged, and incubated with the sera dilutions.
CodeLink NHS slides were incubated for 24 h (1% w/v in PBS) at 4° C. […]

[2] = system: rabbit anti-Streptococcus pneumoniae type 1 typing serum; assay: Glycan microarray binding of rabbit anti-SP1 typing serum to immobilised saccharides; settings: saccharides coated on modified GAPS II or CodeLink NHS slides; FIGS. 6-8
Description: as §1
Maleimide-functionalized microarrays were produced by submerging amine-coated slides (GAPS II slides, Corning) in 6-maleimidohexanoic acid N-hydroxysuccinimide ester (2 mM) in dry DMF with diisopropylethylamine (2.5% v/v) for 24 h at room temperature. Slides were washed three times with water and three times with ethanol, centrifuged to dryness, and stored under argon until spotting. Diluted saccharides of general formula (I) were printed onto the modified microarray slides at 0.4 nL per spot by an automatic piezoelectric arraying robot (Scienion, Berlin, Germany). For completion of the immobilization reaction, printed slides were stored for 24 h in a humidified chamber.
Microarray slides were washed three times with water. Unreacted maleimide was quenched by submerging the slides in β-mercaptoethanol (0.1%, v/v) in PBS for 1 h at room temperature. Slides were washed three times with water and with ethanol, centrifuged to dryness, and blocked with BSA (1%, w/v) in PBS for 1 h at room temperature. […]

CC(=O)N[C@H]1[C@@H](O[C@@H]2[C@H](O)[C@@H](O)[C@@H](O[C@H]3[C@@H](O)[C@@H](C(=O)O)O[C@H](O)[C@@H]3O)O[C@@H]2C(=O)O)O[C@H](C)[C@H](N)[C@@H]1O [α-2,4,6-trideoxy-4-amino-D-GalNAc-(1→4)-α-D-GalAp-(1→3)-α-D-GalAp]
binding of human pneumococcal serum 007sp to saccharide structure on microarray slides [1]: bound | binding of rabbit anti-Streptococcus pneumoniae type 1 typing serum to saccharide structure on microarray slides [2]: bound

O=C(O)[C@H]1O[C@H](O[C@H]2[C@@H](O)[C@@H](C(=O)O)O[C@H](O)[C@@H]2O)[C@H](O)[C@@H](O)[C@H]1O [α-D-GalAp-(1→3)-α-D-GalAp]
binding of human pneumococcal serum 007sp to saccharide structure on microarray slides [1]: bound | binding of rabbit anti-Streptococcus pneumoniae type 1 typing serum to saccharide structure on microarray slides [2]: bound
